{"source": "paper PMC7917901", "about": "(Marine Drugs, 2021)", "key": {"[1]": {"tested_on": "cisplatin-induced mechanical allodynia", "parameters": "species or system mice (C57BL/6J)", "conditions": "mouse, in vivo"}, "[2]": {"tested_on": "surgery-induced thermal allodynia", "parameters": "species or system mice (C57BL/6J)", "conditions": "mouse, in vivo"}, "[3]": {"tested_on": "surgery-induced mechanical allodynia", "parameters": "species or system mice (C57BL/6J)", "conditions": "mouse, in vivo"}, "[4]": {"tested_on": "naïve C57BL6/J mice", "conditions": "mouse, in vivo"}, "[5]": {"tested_on": "naïve C57BL6/J mice", "conditions": "mouse, in vivo", "remark": "listed apart in the source"}, "[6]": {"tested_on": "oxaliplatin-induced mechanical allodynia", "parameters": "species or system mice (C57BL/6J)", "conditions": "mouse, in vivo"}, "[7]": {"tested_on": "mouse inflammatory pain", "conditions": "in vivo, sc; cited from earlier work"}, "[8]": {"tested_on": "oxaliplatin-induced mechanical allodynia", "parameters": "species or system mice (C57BL/6J)", "conditions": "mouse, in vivo", "remark": "listed apart in the source"}, "[9]": {"tested_on": "CaV channel", "conditions": "cited from earlier work"}, "[10]": {"tested_on": "naïve C57BL6/J mice", "conditions": "mouse, in vivo", "remark": "listed apart in the source"}, "[11]": {"conditions": "in vivo; cited from earlier work"}, "[12]": {"conditions": "in vivo, cited from earlier work"}, "[13]": {"biological_target": "T1, endogenous CaV2.2 channels, expressed in the SH-SY5Y cells (Homo sapiens, UniProt Q00975)", "T1 construct": "endogenous CaV2.2 channels, expressed in the SH-SY5Y cells; endogenous in cells; host or cells: SH-SY5Y human neuroblastoma cells", "T1 sequence (Q00975 whole entry, looked up)": "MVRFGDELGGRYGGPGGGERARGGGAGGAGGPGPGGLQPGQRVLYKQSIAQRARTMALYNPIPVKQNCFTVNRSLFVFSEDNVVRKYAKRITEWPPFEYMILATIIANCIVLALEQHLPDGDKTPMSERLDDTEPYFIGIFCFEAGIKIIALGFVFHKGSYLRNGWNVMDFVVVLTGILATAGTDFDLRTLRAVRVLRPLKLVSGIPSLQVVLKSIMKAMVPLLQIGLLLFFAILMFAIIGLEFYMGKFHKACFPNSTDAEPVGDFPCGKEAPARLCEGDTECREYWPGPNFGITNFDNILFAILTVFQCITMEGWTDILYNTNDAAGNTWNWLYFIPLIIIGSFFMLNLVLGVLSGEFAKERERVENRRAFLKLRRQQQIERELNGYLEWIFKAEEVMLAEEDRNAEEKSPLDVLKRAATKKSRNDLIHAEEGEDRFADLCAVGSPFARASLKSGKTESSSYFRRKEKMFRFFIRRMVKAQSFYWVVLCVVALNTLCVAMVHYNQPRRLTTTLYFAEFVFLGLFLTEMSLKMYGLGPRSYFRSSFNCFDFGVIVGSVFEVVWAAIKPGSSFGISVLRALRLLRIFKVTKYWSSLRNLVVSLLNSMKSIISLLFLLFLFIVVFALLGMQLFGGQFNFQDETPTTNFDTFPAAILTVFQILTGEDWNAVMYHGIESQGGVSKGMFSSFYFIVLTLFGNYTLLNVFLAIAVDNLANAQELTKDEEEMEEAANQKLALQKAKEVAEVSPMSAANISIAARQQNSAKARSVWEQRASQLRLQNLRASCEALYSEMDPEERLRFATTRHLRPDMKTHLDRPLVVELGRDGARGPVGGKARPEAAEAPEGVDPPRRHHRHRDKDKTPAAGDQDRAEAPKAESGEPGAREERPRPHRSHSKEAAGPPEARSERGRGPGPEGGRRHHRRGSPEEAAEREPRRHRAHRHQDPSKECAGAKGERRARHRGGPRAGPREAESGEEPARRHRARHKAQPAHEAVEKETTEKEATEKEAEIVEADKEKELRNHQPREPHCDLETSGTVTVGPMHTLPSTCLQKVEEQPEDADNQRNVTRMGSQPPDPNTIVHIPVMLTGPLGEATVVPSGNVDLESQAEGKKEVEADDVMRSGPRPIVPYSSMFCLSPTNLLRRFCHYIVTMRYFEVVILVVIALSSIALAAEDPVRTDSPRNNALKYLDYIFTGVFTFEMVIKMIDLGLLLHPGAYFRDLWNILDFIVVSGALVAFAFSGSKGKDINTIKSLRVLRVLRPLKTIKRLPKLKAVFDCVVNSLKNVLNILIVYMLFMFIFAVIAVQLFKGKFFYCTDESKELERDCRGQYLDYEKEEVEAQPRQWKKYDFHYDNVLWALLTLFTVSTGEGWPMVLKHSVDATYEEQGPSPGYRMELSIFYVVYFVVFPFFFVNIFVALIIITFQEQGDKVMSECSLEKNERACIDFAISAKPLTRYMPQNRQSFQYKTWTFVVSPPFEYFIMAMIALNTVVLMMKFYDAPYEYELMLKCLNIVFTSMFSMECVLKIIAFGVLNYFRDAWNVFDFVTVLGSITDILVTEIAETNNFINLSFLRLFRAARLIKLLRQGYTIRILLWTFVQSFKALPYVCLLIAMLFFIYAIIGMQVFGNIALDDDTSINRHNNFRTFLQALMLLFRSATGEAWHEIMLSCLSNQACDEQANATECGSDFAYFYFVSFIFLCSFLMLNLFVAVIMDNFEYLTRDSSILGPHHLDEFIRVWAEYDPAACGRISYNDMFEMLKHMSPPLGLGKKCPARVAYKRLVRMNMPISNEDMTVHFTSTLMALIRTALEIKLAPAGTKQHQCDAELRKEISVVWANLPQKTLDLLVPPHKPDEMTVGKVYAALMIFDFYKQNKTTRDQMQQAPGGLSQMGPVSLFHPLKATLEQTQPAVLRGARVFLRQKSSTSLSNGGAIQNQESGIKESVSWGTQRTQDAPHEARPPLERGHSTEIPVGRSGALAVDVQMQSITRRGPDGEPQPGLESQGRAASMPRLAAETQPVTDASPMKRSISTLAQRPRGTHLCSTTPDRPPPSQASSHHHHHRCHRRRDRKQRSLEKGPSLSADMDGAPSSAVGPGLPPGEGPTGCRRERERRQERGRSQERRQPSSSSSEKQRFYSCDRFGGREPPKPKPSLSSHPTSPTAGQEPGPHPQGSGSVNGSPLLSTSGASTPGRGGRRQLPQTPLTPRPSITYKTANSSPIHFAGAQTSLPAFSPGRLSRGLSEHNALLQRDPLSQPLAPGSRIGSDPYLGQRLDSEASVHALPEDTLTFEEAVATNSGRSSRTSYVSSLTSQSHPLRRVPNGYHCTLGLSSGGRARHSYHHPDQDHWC", "experiment": "cell-based"}}, "note": "Entries after “also recorded” stand apart in the source; their conditions may differ. Positions of bridges follow the written chain, without caps; N, C: chain ends. Residues, ends and D or L forms follow the SMILES beside them.", "data": [{"smiles": "CC(C)C[C@@H]1NC(=O)[C@H](CCCNC(=N)N)NC(=O)[C@@H]2CSSC[C@@H]3NC(=O)[C@H](CO)NC(=O)[C@H](C)NC(=O)CNC(=O)[C@H](CCCCN)NC(=O)CNC(=O)[C@H](CCCCN)NC(=O)[C@@H](N)CSSC[C@H](NC(=O)[C@H](CSSC[C@@H](C(N)=O)NC(=O)[C@H](CCCNC(=N)N)NC(=O)CNC1=O)NC(=O)[C@H](CC(=O)O)NC(=O)[C@H](Cc1ccc(O)cc1)NC(=O)[C@H](CO)NC(=O)[C@H]([C@@H](C)O)NC(=O)[C@H](CCCNC(=N)N)NC(=O)[C@H](CCCNC(=N)N)NC3=O)C(=O)N[C@@H]([C@@H](C)O)C(=O)NCC(=O)N[C@@H](CO)C(=O)N2", "note": "[CVIF] (H-CKGKGASCRRTSYDCCTGSCRLGRC-NH2; disulfide 1-16, 8-20, 15-25)", "values": [{"measurement": "Effect on CisIPN mechanical PWT", "setting": "[1]", "result": "did not significantly change the PWTs; also recorded: did not produce any significant antiallodynic effect"}, {"measurement": "Mechanical PWT, CisIPN, 2 pmol/paw", "setting": "[1]", "result": "2.0 ± 0.3", "unit": "g"}, {"measurement": "Effect on PSP thermal allodynia", "setting": "[2]", "result": "did not reverse thermal allodynia"}, {"measurement": "Thermal PWT, PSP, 2.0 pmol/paw", "setting": "[2]", "result": "48.9 ± 0.4", "unit": "°C"}, {"measurement": "Effect on PSP mechanical allodynia, 6.0 pmol/paw", "setting": "[3]", "result": "remained unchanged; also recorded: did not produce any significant antiallodynic effect"}, {"measurement": "Mechanical PWT, PSP, 6.0 pmol/paw", "setting": "[3]", "result": "1.4 ± 0.1", "unit": "g"}, {"measurement": "Effect on basal thermal PWT", "setting": "[4]", "result": "did not significantly change mechanical and thermal PWTs"}, {"measurement": "Thermal PWT", "setting": "[4]", "result": "50.8 ± 0.8", "unit": "°C"}, {"measurement": "Effect on basal mechanical PWT", "setting": "[5]", "result": "did not significantly change mechanical and thermal PWTs"}, {"measurement": "Mechanical PWT", "setting": "[5]", "result": "3.1 ± 0.2", "unit": "g"}, {"measurement": "Activity across the pain models", "setting": "[6]", "result": "inactive in these pain models; also recorded: not found effective in any of the peripheral pain models"}, {"measurement": "Effect on OIPN mechanical PWT, 6 pmol/paw", "setting": "[6]", "result": "did not significantly change PWTs; also recorded: did not elicit significant antiallodynic effect"}, {"measurement": "Mechanical PWT, OIPN, 2.0 pmol/paw", "setting": "[6]", "result": "1.9 ± 0.2", "unit": "g"}, {"measurement": "Mechanical PWT, OIPN, 6.0 pmol/paw", "setting": "[6]", "result": "1.7 ± 0.1", "unit": "g"}, {"measurement": "Effect on inflammatory pain", "setting": "[7]", "result": "partially reversed the incapacitance of mouse inflammatory pain"}, {"measurement": "Side effects after subcutaneous administration", "setting": "[7]", "result": "did not cause side effects"}, {"measurement": "Effect of contralateral administration on OIPN mechanical PWT", "setting": "[8]", "result": "did not significantly change mechanical PWTs; also recorded: did not reverse mechanical allodynia"}, {"measurement": "Mechanical PWT, OIPN, contralateral administration", "setting": "[8]", "result": "1.6 ± 0.4", "unit": "g"}, {"measurement": "State dependence of affinity", "setting": "[9]", "result": "higher affinity for channels in the inactivated state"}, {"measurement": "Ataxia index", "setting": "[10]", "result": "7.3 ± 1.8"}, {"measurement": "Ataxia index (paw slips/distance covered)", "setting": "[10]", "result": "7.3 ± 1.8", "unit": "m"}, {"measurement": "Distance covered", "setting": "[10]", "result": "1.7 ± 0.4", "unit": "m"}, {"measurement": "Number of paw slips", "setting": "[10]", "result": "10.5 ± 1.5"}, {"measurement": "Number of paw slips (printed with unit g)", "setting": "[10]", "result": "10.5 ± 1.5", "unit": "g"}, {"measurement": "Safety profile", "setting": "[11]", "result": "better safety profile in preclinical studies"}]}, {"smiles": "CSCC[C@@H]1NC(=O)[C@H](CC(C)C)NC(=O)[C@H](CCCNC(=N)N)NC(=O)[C@H](CO)NC(=O)[C@@H]2CSSC[C@@H]3NC(=O)[C@H](CO)NC(=O)CNC(=O)[C@H]([C@@H](C)O)NC(=O)[C@H](CSSC[C@H](N)C(=O)N[C@@H](CCCCN)C(=O)NCC(=O)N[C@@H](CCCCN)C(=O)NCC(=O)N[C@@H](C)C(=O)N[C@@H](CCCCN)C(=O)N2)NC(=O)[C@H](CSSC[C@@H](C(N)=O)NC(=O)[C@H](CCCCN)NC(=O)CNC(=O)[C@H](CO)NC(=O)[C@H](CCCNC(=N)N)NC3=O)NC(=O)[C@H](CC(=O)O)NC(=O)[C@H](Cc2ccc(O)cc2)NC1=O", "note": "[MVIIA]", "values": [{"measurement": "Effect on basal thermal PWT", "setting": "[4]", "result": "did not significantly change mechanical and thermal PWTs"}, {"measurement": "Effect on basal mechanical PWT", "setting": "[5]", "result": "did not significantly change mechanical and thermal PWTs"}, {"measurement": "Oral bioavailability and CNS access", "setting": "[12]; po", "result": "Poor oral bioavailability and CNS access"}, {"measurement": "Plasma half-life", "setting": "[12]", "result": "short plasma half-life"}, {"measurement": "Ataxia index", "setting": "[10]", "result": "6.7 ± 1.6"}, {"measurement": "Ataxia index (paw slips/distance covered)", "setting": "[10]", "result": "6.7 ± 1.6", "unit": "m"}, {"measurement": "Distance covered", "setting": "[10]", "result": "1.8 ± 0.3", "unit": "m"}, {"measurement": "Number of paw slips", "setting": "[10]", "result": "11.0 ± 1.8"}, {"measurement": "Number of paw slips (printed with unit g)", "setting": "[10]", "result": "11.0 ± 1.8", "unit": "g"}]}, {"smiles": "C[C@@H](O)[C@@H]1NC(=O)[C@H](Cc2ccc(O)cc2)NC(=O)[C@@H]2C[C@@H](O)CN2C(=O)[C@H](CC(N)=O)NC(=O)[C@@H]2CSSC[C@@H]3NC(=O)[C@H](CO)NC(=O)[C@H](CO)NC(=O)CNC(=O)[C@@H]4C[C@@H](O)CN4C(=O)[C@H](CO)NC(=O)[C@H](CCCCN)NC(=O)[C@@H](N)CSSC[C@H](NC(=O)[C@H](CSSC[C@@H](C(=O)N[C@@H](Cc4ccc(O)cc4)C(N)=O)NC(=O)[C@H](CCCN=C(N)N)NC(=O)[C@H](CCCCN)NC1=O)NC(=O)[C@H](CC(N)=O)NC(=O)[C@H](Cc1ccc(O)cc1)NC(=O)[C@H](CO)NC(=O)[C@H]([C@@H](C)O)NC(=O)[C@@H]1C[C@@H](O)CN1C(=O)[C@H](CO)NC3=O)C(=O)N[C@@H](CCCN=C(N)N)C(=O)N[C@@H](CO)C(=O)N2", "note": "[GVIA]", "values": [{"measurement": "Effect on basal thermal PWT", "setting": "[4]", "result": "did not significantly change mechanical and thermal PWTs"}, {"measurement": "Effect on basal mechanical PWT", "setting": "[5]", "result": "did not significantly change mechanical and thermal PWTs"}, {"measurement": "IC50", "setting": "[13]", "result": "11.2 ± 3.3", "unit": "nM"}, {"measurement": "Ataxia index", "setting": "[10]", "result": "6.9 ± 1.7"}, {"measurement": "Ataxia index (paw slips/distance covered)", "setting": "[10]", "result": "6.9 ± 1.7", "unit": "m"}, {"measurement": "Distance covered", "setting": "[10]", "result": "1.7 ± 0.2", "unit": "m"}, {"measurement": "Number of paw slips", "setting": "[10]", "result": "11.3 ± 2.8"}]}]}
